Drawing on patent US20250282768A1 (Janssen Pharmaceutica NV, priority 2022, published 2025), this text covers IC50 for 21 compounds.

The subject of the assay is p-IKKa levels in L363 (NIK translocated multiple myeloma) cells. The assay is described as follows: Assay 2: Effect of compounds on p-IKKa levels in L363 (NIK translocated multiple myeloma) cells. Format: cell-based. Particulars: Homo sapiens, L-363, 6 h, read-out: Assay 2 IC50 (nM), p-IKKa (Ser 176/180) in BAFF stimulated L363 cells with MG132, 6 h; average if tested more than once. How it is done: Assay 2: Effect of Compounds on p-IKKa Levels in L363 (NIK Translocated Multiple Myeloma) Cells
All compounds tested were dissolved and serially diluted in DMSO, 1:3 dilution for 11 points in an Echo compatible plate. 100% DMSO was added to columns 12 and 24 of the plate to serve as high and low signal controls. This compound plate was used to spot 20 nL of compound or DMSO into a Greiner 384 well TC plate (781080). The final DMSO concentration was 0.3% (v/v) in cell assays. Human L363 cells (ATCC) were cultured in RPM11640 medium supplemented with GlutaMax, non-essential amino acids, sodium pyruvate and 10% fetal bovine serum. Cells were routinely maintained at densities of 0.2×10^6 cells per ml—2×10^6 cells per mL at 37° C. in a humidified 5% CO2 atmosphere incubator. Cells were passaged twice a week splitting back to obtain the low density. The day before the assay, cells were washed twice in HBSS (Hank's Balanced Salt Solution), resuspended in Dulbecco's Modified Eagle Medium (DMEM)+0.5% IgG and protease free BSA (Jackson Immuno Research Laboratories), +/−250 ng/ml recombinant human B-cell activating factor (BAFF/BLyS/TNFSF13B) and incubated overnight at 37° C. in a humidified 5% CO2 atmosphere (bulk stimulation with or without BAFF). The next day, the cell concentration was adjusted to 1×10^7 cells/ml in DMEM+/−250 ng/ml BAFF +/−10 μM MG132 and plated at 10 μl/well into compound or DMSO spotted 384 well TC plates. Seeded cells were incubated at 37° C. in a humidified 5% CO2 atmosphere for 6 h. After 6 h, the plates were removed from the incubator and cell lysis was achieved by the addition of 2.5 μl 5×lysis buffer containing protease and phosphatase inhibitors, followed by shaking on a plate shaker at room temperature for 15 min. At the end of this incubation, lysed cells were sequentially treated and incubated with acceptor and donor bead mixes according to the manufacturer's protocol for a 1 plate/2-incubation suspension cell assay (AlphaLISA SureFire Ultra p-IKKa (Ser 176/180) Assay Kit (Perkin Elmer). Plates were read using an EnVision Multilabel Plate Reader (Perkin Elmer). Within an experiment, a concentration response curve for each compound was run in duplicate. The signal obtained in the test wells was normalized using high signal (BAFF stimulated cells, DMSO, MG132) and low signal (unstimulated cells, DMSO) controls. To determine the IC50, a sigmoidal curve was fitted to the plot of % inhibition versus Log10 compound concentration.
For `CN1CC[C@@H](n2cc(Nc3nccc(-c4cccc(-c5cc([C@]6(O)CCN(C)C6=O)on5)n4)n3)cn2)[C@H](F)C1` (single isomer, unassigned) [Example 202], the IC50 is less than 50 nM.

Consider `CN1CC[C@H](n2cc(Nc3nccc(-c4cccc(-c5cc([C@]6(O)CCN(C)C6=O)on5)n4)n3)cn2)C1` (single isomer, unassigned) [Example 203, (R)-3-Hydroxy-1-methyl-3-(3-(6-(2-((1-((*S)-1-methylpyrrolidin-3-yl)-1H-pyrazol-4-yl)amino)pyrimidin-4-yl)pyridin-2-yl)isoxazol-5-yl)pyrrolidin-2-one], for which the IC50 was 50 to 500 nM.

Turning to `CN1CC[C@@](O)(c2cc(-c3cccc(-c4ccnc(N[C@@H]5CCCC[C@@H]5O)n4)n3)no2)C1=O` (single isomer, unassigned) [Example 336], the IC50 was more than 500 nM.

As for `CN1CC[C@@](O)(c2cc(-c3cccc(-c4ccnc(N[C@H]5CCCC[C@H]5O)n4)n3)no2)C1=O` (single isomer, unassigned) [Example 337], the IC50 is more than 500 nM.

As for `C[C@H]1OCC[C@@H]1Nc1nccc(-c2cccc(-c3cc([C@]4(O)CCN(C)C4=O)on3)n2)n1` (single isomer, unassigned) [Example 346], the IC50 is 50 to 500 nM.

For the compound `C[C@@H]1OCC[C@@H]1Nc1nccc(-c2cccc(-c3cc([C@]4(O)CCN(C)C4=O)on3)n2)n1` (single isomer, unassigned) [Example 347], the IC50 was in the range of 50 to 500 nM.

`C[C@H](Nc1nccc(-c2cccc(-c3cc([C@]4(O)CCN(C)C4=O)no3)n2)n1)c1cnn(C)c1` (single isomer, unassigned) [Example 400]: the IC50 was more than 500 nM.

Turning to `C[C@@H](Nc1nccc(-c2cccc(-c3cc([C@]4(O)CCN(C)C4=O)no3)n2)n1)c1cnn(C)c1` (single isomer, unassigned) [Example 401], the IC50 was less than 50 nM.

For `C[C@@H](Nc1nccc(-c2cccc(-c3cc([C@]4(O)CCN(C)C4=O)on3)n2)n1)c1ccn(C)n1` (single isomer, unassigned) [Example 404, (R)-3-Hydroxy-1-methyl-3-(3-(6-(2-(((*R)-1-(1-methyl-1H-pyrazol-3-yl)ethyl)amino)pyrimidin-4-yl)pyridin-2-yl)isoxazol-5-yl)pyrrolidin-2-one], the IC50 was more than 500 nM.

Take `C[C@H](Nc1nccc(-c2cccc(-c3cc([C@]4(O)CCN(C)C4=O)on3)n2)n1)c1ccn(C)n1` (single isomer, unassigned) [Example 405, (R)-3-hydroxy-1-methyl-3-(3-(6-(2-(((*S)-1-(1-methyl-1H-pyrazol-3-yl)ethyl)amino)pyrimidin-4-yl)pyridin-2-yl)isoxazol-5-yl)pyrrolidin-2-one]: the IC50 is 50 to 500 nM.

As for `CN1CC[C@@](O)(c2cnn(-c3cccc(-c4ccnc(Nc5cnn(C)c5Cl)n4)n3)c2)C1=O` (single isomer, unassigned) [Example 411, (*R)-3-(1-(6-(2-((5-Chloro-1-methyl-1H-pyrazol-4-yl)amino)pyrimidin-4-yl)pyridin-2-yl)-1H-pyrazol-4-yl)-3-hydroxy-1-methylpyrrolidin-2-one], the IC50 is 50 to 500 nM.

For `C[C@@H](CC(F)(F)F)Nc1nccc(-c2cccc(-c3cc([C@]4(O)CCN(C)C4=O)on3)n2)n1` (single isomer, unassigned) [Example 437, (R)-3-Hydroxy-1-methyl-3-(3-(6-(2-(((*S)-4,4,4-trifluorobutan-2-yl)amino)pyrimidin-4-yl)pyridin-2-yl)isoxazol-5-yl)pyrrolidin-2-one], the IC50 lay in the range of 50 to 500 nM.

Regarding `C[C@H](CC(F)(F)F)Nc1nccc(-c2cccc(-c3cc([C@]4(O)CCN(C)C4=O)on3)n2)n1` (single isomer, unassigned) [Example 438, (R)-3-Hydroxy-1-methyl-3-(3-(6-(2-(((*R)-4,4,4-trifluorobutan-2-yl)amino)pyrimidin-4-yl)pyridin-2-yl)isoxazol-5-yl)pyrrolidin-2-one], the IC50 was in the range of 50 to 500 nM.

Regarding `CN1CC[C@@](O)(c2cc(-c3cccc(-c4ccnc(N[C@H]5CCSC5)n4)n3)no2)C1=O` (single isomer, unassigned) [Example 457, (R)-3-Hydroxy-1-methyl-3-(3-(6-(2-(((*S)-tetrahydrothiophen-3-yl)amino)pyrimidin-4-yl)pyridin-2-yl)isoxazol-5-yl)pyrrolidin-2-one], the IC50 lay within 50 to 500 nM.

Take `CN1CC[C@@](O)(c2cc(-c3cccc(-c4ccnc(N[C@@H]5CCSC5)n4)n3)no2)C1=O` (single isomer, unassigned) [Example 458, (R)-3-Hydroxy-1-methyl-3-(3-(6-(2-(((*R)-tetrahydrothiophen-3-yl)amino)pyrimidin-4-yl)pyridin-2-yl)isoxazol-5-yl)pyrrolidin-2-one]: the IC50 was in the range of 50 to 500 nM.

For `CO[C@H](CNc1nccc(-c2cccc(-c3cc([C@]4(O)CCN(C)C4=O)on3)n2)n1)C(F)(F)F` (single isomer, unassigned) [Example 462, (R)-3-Hydroxy-1-methyl-3-(3-(6-(2-(((*R)-3,3,3-trifluoro-2-methoxypropyl)amino)pyrimidin-4-yl)pyridin-2-yl)isoxazol-5-yl)pyrrolidin-2-one], the IC50 was in the range of 50 to 500 nM.

For `CO[C@@H](CNc1nccc(-c2cccc(-c3cc([C@]4(O)CCN(C)C4=O)on3)n2)n1)C(F)(F)F` (single isomer, unassigned) [Example 463, (R)-3-Hydroxy-1-methyl-3-(3-(6-(2-(((*S)-3,3,3-trifluoro-2-methoxypropyl)amino)pyrimidin-4-yl)pyridin-2-yl)isoxazol-5-yl)pyrrolidin-2-one], the IC50 was in the range of 50 to 500 nM.

Take `CO[C@H]1COCC[C@@H]1Nc1nccc(-c2cccc(-c3cc([C@]4(O)CCN(C)C4=O)on3)n2)n1` (stereo in doubt) [Example 355, (R)-3-Hydroxy-3-(3-(6-(2-(((trans)-3-methoxytetrahydro-2H-pyran-4-yl)amino)pyrimidin-4-yl)pyridin-2-yl)isoxazol-5-yl)-1-methylpyrrolidin-2-one]: the IC50 was more than 500 nM.

`CN1C(=O)[C@](O)(c2cc(-c3cccc(-c4ccnc(Nc5ccn(C)n5)n4)n3)no2)C[C@H]1C(F)(F)F` [Example 1, (3R,5S)-3-Hydroxy-1-methyl-3-(3-(6-(2-((1-methyl-1H-pyrazol-3-yl)amino)pyrimidin-4-yl)pyridin-2-yl)isoxazol-5-yl)-5-(trifluoromethyl)pyrrolidin-2-one]: the IC50 is 50 to 500 nM.

In the case of `CN1CC[C@@](O)(c2cc(-c3cc(C(F)(F)F)cc(-c4ccnc(Nc5ccn(C)n5)n4)n3)no2)C1=O` [Example 2, (R)-3-Hydroxy-1-methyl-3-(3-(6-(2-((1-methyl-1H-pyrazol-3-yl)amino)pyrimidin-4-yl)-4-(trifluoromethyl)pyridin-2-yl)isoxazol-5-yl)pyrrolidin-2-one], the IC50 was less than 50 nM.

Consider `CN1CC(F)(F)[C@@](O)(c2cc(-c3cccc(-c4ccnc(Nc5cnn(C)c5)n4)n3)no2)C1=O` [Example 3, (R)-4,4-Difluoro-3-hydroxy-1-methyl-3-(3-(6-(2-((1-methyl-1H-pyrazol-4-yl)amino)pyrimidin-4-yl)pyridin-2-yl)isoxazol-5-yl)pyrrolidin-2-one], for which the IC50 is less than 50 nM.
